In experiment [1] the test system is ENR+CD organoids (ISC to Paneth cell differentiation). Briefly: Primary screen: basal (non-stimulated) lysozyme secretion LYZ.NS, 2.5-D 384-well ENR+CD organoid differentiation. In kind it is cell-based, mouse. The source says:
(§1) High-throughput screening.

The test system is the same in experiment [2]. Briefly: Primary screen: CCh-stimulated lysozyme secretion LYZ.S, 2.5-D 384-well ENR+CD organoid differentiation. Conditions: primary screen. In kind it is cell-based, mouse.
From the text: as §1

The subject of the next experiment is ENR+CD organoids. Description: Primary screen: ATP (CellTiter-Glo 3D, CTG) cell number/viability, 2.5-D 384-well ENR+CD organoids.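 As to all read-outs here: compounds given at plating and again on day 3 over a 6-day differentiation from ENR+CV stem-cell-enriched precursors, ATP measured on day 6, plate median as control.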 To be noted: primary screen; for Z.CTG: standard z score.
Setting [3] is: primary screen, dose 0.08 uM, FC relative to plate median.
Where [4] appears, read: primary screen, dose 0.08 uM, standard z score.
[5] abbreviates: primary screen, dose 0.40 uM, FC relative to plate median.
Where [6] appears, read: primary screen, dose 0.40 uM, standard z score.
[7] abbreviates: primary screen, dose 2.00 uM, FC relative to plate median.
The mark [8] stands for this setting: primary screen, dose 2.00 uM, standard z score.
[9] abbreviates: primary screen, dose 10.00 uM, FC relative to plate median.
Setting [10] is: primary screen, dose 10.00 uM, standard z score.
[11] abbreviates: dose 0.08 uM, FC relative to plate median.
Setting [12] is: dose 0.40 uM, FC relative to plate median.
Setting [13] is: dose 2.00 uM, FC relative to plate median.
The mark [14] stands for this setting: dose 10.00 uM, FC relative to plate median.
[15] abbreviates: dose 0.08 uM, FC vs plate median.
Setting [16] is: dose 0.40 uM, FC vs plate median.
Where [17] appears, read: dose 2.00 uM, FC vs plate median.
Setting [18] is: dose 10.00 uM, FC vs plate median.

Where a name gives a salt, the structure may show the parent alone.

Turning to `c1ccc(CC2=NCCN2)cc1` [Tolazoline HCl], the Dose.FC.LYZ.NS in experiment [1] (primary screen, dose 0.08 uM) is given as 0.144 log2 fold change; in experiment [1] (primary screen, dose 0.40 uM), 0.084 log2 fold change; in experiment [1] (primary screen, dose 2.00 uM), 0.088 log2 fold change; in experiment [1] (primary screen, dose 10.00 uM), −0.049 log2 fold change. In addition, the “Z.LYZ.NS (standard z score)” value in experiment [1] (primary screen, dose 0.08 uM) was 1.255; in experiment [1] (primary screen, dose 0.40 uM) it was 0.728; in experiment [1] (primary screen, dose 2.00 uM), 0.765; in experiment [1] (primary screen, dose 10.00 uM), −0.424. Further, the Dose.FC.LYZ.S in experiment [2] (dose 0.08 uM) is given as 0.169 log2 fold change; in experiment [2] (dose 0.40 uM), 0.128 log2 fold change; in experiment [2] (dose 2.00 uM) it was 0.069 log2 fold change; in experiment [2] (dose 10.00 uM), −0.063 log2 fold change. Also, the Dose.FC.CTG in the experiment with ENR+CD organoids (dose 0.08 uM) is listed as 0.245 log2 fold change; in the experiment with ENR+CD organoids (dose 0.40 uM), 0.222 log2 fold change; in the experiment with ENR+CD organoids (dose 2.00 uM), −0.051 log2 fold change; with ENR+CD organoids (dose 10.00 uM), −0.208 log2 fold change.

Turning to `O=C(NC[C@H]1CN(c2ccc(N3CCOCC3=O)cc2)C(=O)O1)c1ccc(Cl)s1` [Rivaroxaban], the Dose.FC.LYZ.NS in experiment [1] (setting [3]) is listed as 0.108 log2 fold change; in experiment [1] (setting [5]), −0.029 log2 fold change; in experiment [1] (setting [7]) it was 0.153 log2 fold change; in experiment [1] (setting [9]), −0.045 log2 fold change. Also, the Z.LYZ.NS in experiment [1] (setting [4]) was 0.941; in experiment [1] (setting [6]), −0.248; in experiment [1] (setting [8]) it was 1.336; in experiment [1] (setting [10]) it was −0.390. Further, the Dose.FC.LYZ.S in experiment [2] (setting [11]) is 0.136 log2 fold change; in experiment [2] (setting [12]), −0.027 log2 fold change; in experiment [2] (setting [13]) it was 0.063 log2 fold change; in experiment [2] (setting [14]), −0.048 log2 fold change. The Dose.FC.CTG in the experiment with ENR+CD organoids (setting [11]) turned out to be 0.021 log2 fold change; with ENR+CD organoids (setting [12]), 0.195 log2 fold change; in the experiment with ENR+CD organoids (setting [13]) it was 0.052 log2 fold change; in the experiment on ENR+CD organoids (setting [14]), 0.044 log2 fold change.

For `CCCC(C)NC(=O)c1ccc(Cl)c(Cl)c1` (stereo not shown) [NSC 405020], the Z.LYZ.NS in experiment [1] (setting [4]) was 0.071; in experiment [1] (setting [6]), −0.246; in experiment [1] (setting [8]) it was 0.160; in experiment [1] (setting [10]), −0.570. The Dose.FC.LYZ.NS in experiment [1] (primary screen; dose 0.08 uM; FC vs plate median) was 0.008 log2 fold change; in experiment [1] (primary screen; dose 0.40 uM; FC vs plate median), −0.028 log2 fold change; in experiment [1] (primary screen; dose 2.00 uM; FC vs plate median), 0.018 log2 fold change; in experiment [1] (primary screen; dose 10.00 uM; FC vs plate median), −0.065 log2 fold change. Also, the Dose.FC.LYZ.S in experiment [2] (setting [15]) was 0.014 log2 fold change; in experiment [2] (setting [16]), 0.093 log2 fold change; in experiment [2] (setting [17]), 0.002 log2 fold change; in experiment [2] (setting [18]), −0.061 log2 fold change. Besides, the Z.CTG in the experiment with ENR+CD organoids (dose 0.08 uM) is reported as −0.140; in the experiment on ENR+CD organoids (dose 0.40 uM), −0.170; in the experiment on ENR+CD organoids (dose 2.00 uM), −0.141; with ENR+CD organoids (dose 10.00 uM), −0.138. Further, the Dose.FC.CTG in the experiment on ENR+CD organoids (setting [15]) is on record as −0.059 log2 fold change; in the experiment on ENR+CD organoids (setting [16]), −0.071 log2 fold change; in the experiment on ENR+CD organoids (setting [17]) it was −0.059 log2 fold change; with ENR+CD organoids (setting [18]), −0.058 log2 fold change.

With `O=C(N/N=C/c1ccc(O)c(O)c1)c1cc2ccccc2cc1O` [Dynasore], the Dose.FC.LYZ.NS was 0.049 log2 fold change in experiment [1] (primary screen, dose 0.08 uM); −0.020 log2 fold change in experiment [1] (primary screen, dose 0.40 uM); 0.036 log2 fold change in experiment [1] (primary screen, dose 2.00 uM); 0.048 log2 fold change in experiment [1] (primary screen, dose 10.00 uM). In addition, the Z.LYZ.NS is reported as 0.431 in experiment [1] (primary screen, standard z score, dose 0.08 uM); −0.176 in experiment [1] (primary screen, standard z score, dose 0.40 uM); 0.314 in experiment [1] (primary screen, standard z score, dose 2.00 uM); 0.414 in experiment [1] (primary screen, standard z score, dose 10.00 uM). In addition, the Dose.FC.LYZ.S in experiment [2] (dose 0.08 uM) is 0.078 log2 fold change; in experiment [2] (dose 0.40 uM), 0.122 log2 fold change; in experiment [2] (dose 2.00 uM) it was −0.024 log2 fold change; in experiment [2] (dose 10.00 uM) it was 0.041 log2 fold change. In addition, the Dose.FC.CTG is given as −0.248 log2 fold change in the experiment on ENR+CD organoids (dose 0.08 uM), −0.253 log2 fold change with ENR+CD organoids (dose 0.40 uM), −0.152 log2 fold change in the experiment with ENR+CD organoids (dose 2.00 uM) and −0.011 log2 fold change in the experiment on ENR+CD organoids (dose 10.00 uM).

`Clc1ccc(N/N=C(\c2ccccc2)c2ccccn2)nc1` [JIB-04]: the “Dose.FC.LYZ.NS (log2 fold change)” value is 0.178 in experiment [1] (primary screen, dose 0.08 uM); 0.030 in experiment [1] (primary screen, dose 0.40 uM); 0.006 in experiment [1] (primary screen, dose 2.00 uM); −0.153 in experiment [1] (primary screen, dose 10.00 uM). Further, the “Z.LYZ.NS (standard z score)” value in experiment [1] (primary screen, dose 0.08 uM) was 1.549; in experiment [1] (primary screen, dose 0.40 uM), 0.264; in experiment [1] (primary screen, dose 2.00 uM), 0.048; in experiment [1] (primary screen, dose 10.00 uM), −1.330. The “Dose.FC.LYZ.S (log2 fold change)” value is on record as 0.203 in experiment [2] (dose 0.08 uM), 0.084 in experiment [2] (dose 0.40 uM), −0.056 in experiment [2] (dose 2.00 uM) and −0.085 in experiment [2] (dose 10.00 uM). Further, the “Dose.FC.CTG (log2 fold change)” value with ENR+CD organoids (dose 0.08 uM) was 0.254; in the experiment with ENR+CD organoids (dose 0.40 uM) it was 0.108; in the experiment on ENR+CD organoids (dose 2.00 uM), 0.092; in the experiment with ENR+CD organoids (dose 10.00 uM) it was −0.181. In addition, the “Z.CTG (standard z score)” value with ENR+CD organoids (dose 0.08 uM) is 0.607; in the experiment with ENR+CD organoids (dose 0.40 uM), 0.258; with ENR+CD organoids (dose 2.00 uM), 0.219; with ENR+CD organoids (dose 10.00 uM), −0.433.

For `Oc1ccc(Nc2nc(-c3ccc(Cl)cc3)cs2)cc1` [SKI II], the Dose.FC.LYZ.NS is 0.078 log2 fold change in experiment [1] (setting [3]), 0.219 log2 fold change in experiment [1] (setting [5]), 0.074 log2 fold change in experiment [1] (setting [7]) and −0.156 log2 fold change in experiment [1] (setting [9]). For the same compound, the Z.LYZ.NS was 0.683 in experiment [1] (setting [4]), 1.906 in experiment [1] (setting [6]), 0.647 in experiment [1] (setting [8]) and −1.362 in experiment [1] (setting [10]). Further, the Dose.FC.LYZ.S in experiment [2] (setting [11]) was 0.090 log2 fold change; in experiment [2] (setting [12]), 0.123 log2 fold change; in experiment [2] (setting [13]), 0.061 log2 fold change; in experiment [2] (setting [14]), −0.191 log2 fold change. Moreover, the Dose.FC.CTG in the experiment on ENR+CD organoids (setting [11]) is reported as 0.293 log2 fold change; in the experiment with ENR+CD organoids (setting [12]) it was 0.222 log2 fold change; in the experiment with ENR+CD organoids (setting [13]), 0.198 log2 fold change; in the experiment with ENR+CD organoids (setting [14]), −0.336 log2 fold change. Further, the Z.CTG with ENR+CD organoids (dose 0.08 uM) is 0.699; in the experiment with ENR+CD organoids (dose 0.40 uM) it was 0.531; in the experiment with ENR+CD organoids (dose 2.00 uM) it was 0.473; in the experiment with ENR+CD organoids (dose 10.00 uM) it was −0.802.

For the compound `COc1ccnc2[nH]cc(C(=O)C(=O)N3CCN(C(=O)c4ccccc4)C[C@H]3C)c12` [BMS-378806], the Dose.FC.LYZ.NS in experiment [1] (primary screen, dose 0.08 uM) is given as 0.141 log2 fold change; in experiment [1] (primary screen, dose 2.00 uM) it was −0.100 log2 fold change; in experiment [1] (primary screen, dose 10.00 uM), −0.227 log2 fold change. The “Z.LYZ.NS (standard z score)” value is reported as 1.231 in experiment [1] (primary screen, dose 0.08 uM); −0.870 in experiment [1] (primary screen, dose 2.00 uM); −1.977 in experiment [1] (primary screen, dose 10.00 uM). Moreover, the values for the Dose.FC.LYZ.S in experiment [2] (dose 0.08 uM), in experiment [2] (dose 2.00 uM) and in experiment [2] (dose 10.00 uM) were 0.159 log2 fold change, −0.142 log2 fold change and −0.322 log2 fold change, respectively. Besides, the figures for the Dose.FC.CTG in the experiment on ENR+CD organoids (dose 0.08 uM), in the experiment with ENR+CD organoids (dose 2.00 uM) and in the experiment with ENR+CD organoids (dose 10.00 uM) were 0.233 log2 fold change, −0.289 log2 fold change and −1.155 log2 fold change, respectively. The results for the “Z.CTG (standard z score)” value in the experiment on ENR+CD organoids (dose 0.08 uM), in the experiment with ENR+CD organoids (dose 2.00 uM) and with ENR+CD organoids (dose 10.00 uM) were 0.557, −0.691 and −2.758, respectively.

With `CCn1c(=O)c2c(nc(/C=C/c3ccc(OC)c(OC)c3)n2C)n(CC)c1=O` [Istradefylline], the “Dose.FC.LYZ.NS (log2 fold change)” value in experiment [1] (primary screen, dose 0.08 uM) is recorded as −0.015; in experiment [1] (primary screen, dose 0.40 uM), −0.035; in experiment [1] (primary screen, dose 2.00 uM), −0.003; in experiment [1] (primary screen, dose 10.00 uM), −0.041. For the same compound, the “Z.LYZ.NS (standard z score)” value in experiment [1] (primary screen, dose 0.08 uM) is −0.131; in experiment [1] (primary screen, dose 0.40 uM), −0.304; in experiment [1] (primary screen, dose 2.00 uM) it was −0.022; in experiment [1] (primary screen, dose 10.00 uM), −0.353. The “Dose.FC.LYZ.S (log2 fold change)” value is −0.029 in experiment [2] (dose 0.08 uM), −0.087 in experiment [2] (dose 0.40 uM), −0.096 in experiment [2] (dose 2.00 uM) and −0.057 in experiment [2] (dose 10.00 uM). In addition, the “Dose.FC.CTG (log2 fold change)” value is reported as −0.045 in the experiment with ENR+CD organoids (dose 0.08 uM), 0.066 with ENR+CD organoids (dose 0.40 uM), −0.157 in the experiment with ENR+CD organoids (dose 2.00 uM) and −0.038 in the experiment on ENR+CD organoids (dose 10.00 uM).

The values are drawn from patent US20220323406A1, “METHODS AND COMPOSITIONS FOR DIFFERENTIATING STEM CELLS” (Massachusetts Institute of Technology, priority 2019, published 2022).
